Test results: patent US20230123104A1, “CRYSTAL OF TRICYCLIC COMPOUND ACTING ON CRBN PROTEIN AND PREPARATION METHOD THEREFOR” (CHIA TAI TIANQING PHARMACEUTICAL GROUP CO., LTD., priority 2020, published 2023)

Key:
Format in all cases: physicochemical
[1] = Hygroscopicity study by dynamic vapor sorption (DVS)
Experimental: In the present application, dynamic vapor sorption (DVS) analysis is performed under the following conditions: instrument: SMS DVS Advantage-1; equilibration: dm/dt=0.01%/min (shortest: 60 min, longest: 180 min); drying: drying at 0% RH for 120 min; RH (%) test gradient: 10%; range of RH (%) test gradient: 0%-90%-0%.
The evaluation of hygroscopicity was classified as follows:
Dynamic Vapor Sorption Apparatus SMS DVS Advantage-1
10-15 mg of the crystalline form A of the compound of formula (I) was placed in a DVS sample tray and tested.

[2] = Stability test of crystalline form A in different solvents (XRPD); conditions: methanol, ethanol, acetone, acetonitrile, tetrahydrofuran, methyl tert-butyl ether, ethyl acetate, water, acetonitrile or acetone with water
Experimental: 50-mg portions of the crystalline form A of the compound of formula (I) were weighed into different 2.0 mL glass vials, and appropriate amounts of single or mixed solvents in the table below were added. After the addition of magnetic stir bars, the samples were stirred on a magnetic stirrer (25° C./50° C., 700 rpm) in the dark. The 25° C. samples were stirred for 1 week and centrifuged, and the resulting solid samples were dried in a vacuum oven at 40° C. overnight. The 50° C. samples were stirred for 2 days and centrifuged in a centrifuge tube with a filter membrane, and the solvent in the lower layer was discarded. The samples were let stand in a fume hood for 1 h so that they were air-dried. The resulting dried samples were subjected to XRPD analysis to determine their crystalline forms.

[3] = Solid stability test at high temperature, at high humidity, and in intense light
Experimental: According to the “Guidelines for the Stability Test of APIs and Preparations” (General Principles 9001 of the Four Parts of the Chinese Pharmacopoeia, 2020 Edition), the stability of the crystalline form A of the compound of formula (I) was investigated at high temperature (60° C., open), at high humidity (room temperature/relative humidity at 92.5%, open), and in intense light (5000±500 Lux, 90 μw/cm^2, open).
1.5 g of the crystalline form A of the compound of formula (I) was weighed into an open measuring flask and spread out to form a thin layer. The sample for high temperature test was placed in an electrothermal drying oven and investigated, and the sample for high humidity test was placed in an integrated drug stability test chamber and investigated. Samples were taken on days 5, 10 and 30 for analysis, and the results were compared with the preliminary results of day 0. The sample for intense light test was placed in an open flask. Samples were taken on days 5 and 10 for analysis, and the results were compared with the preliminary results of day 0.

[4] = Solid stability test under accelerated conditions (40° C./relative humidity at 75%, sealed)
Experimental: According to the “Guidelines for the Stability Test of APIs and Preparations” (General Principles 9001 of the Four Parts of the Chinese Pharmacopoeia, 2020 Edition), the stability of the crystalline form A of the compound of formula (I) was investigated under accelerated conditions at high temperature and high humidity (40° C./relative humidity at 75%, sealed).
(§1) 1.5 g of the crystalline form A of the compound of formula (I) was weighed into a double-layer low-density polyethylene bag. Each layer a the low-density polyethylene bag was sealed with a binding tie, and the bag was put into an aluminum foil bag. Samples were taken in months 1, 2, 3 and 6 for analysis, and the results were compared with the preliminary results of day 0. This experiment was repeated twice, each with a different batch of the crystalline form A of the compound of formula (I).

[5] = Solid stability test under long-term conditions (25° C./relative humidity at 60%, sealed)
Experimental: According to the “Guidelines for the Stability Test of APIs and Preparations” (General Principles 9001 of the Four Parts of the Chinese Pharmacopoeia, 2020 Edition), the stability of the crystalline form A of the compound of formula (I) was investigated under long-terns conditions (25° C./relative humidity at 60%, sealed).
as §1, with “layer of” for “layer a”, “foil hag.” for “foil bag.”, “months” for “months 1, 2,”

[6] = High humidity (room temperature/relative humidity 92.5%, open), Day 5
[7] = High humidity (room temperature/relative humidity 92.5%, open), Day 10
[8] = High humidity (room temperature/relative humidity 92.5%, open), Day 30
[9] = High temperature (60° C., open), Day 5
[10] = High temperature (60° C., open), Day 10
[11] = High temperature (60° C., open), Day 30
[12] = Intense light (5000 ± 500 Lux, 90 μw/cm^2, open), Day 5
[13] = Intense light (5000 ± 500 Lux, 90 μw/cm^2, open), Day 10
[14] = Batch 1, 40° C./relative humidity at 75%, sealed, Month 1
[15] = Batch 1, 40° C./relative humidity at 75%, sealed, Month 2
[16] = Batch 1, 40° C./relative humidity at 75%, sealed, Month 3
[17] = Batch 1, 40° C./relative humidity at 75%, sealed, Month 6
[18] = Batch 2, 40° C./relative humidity at 75%, sealed, Month 1
[19] = Batch 2, 40° C./relative humidity at 75%, sealed, Month 2
[20] = Batch 2, 40° C./relative humidity at 75%, sealed, Month 3
[21] = Batch 2, 40° C./relative humidity at 75%, sealed, Month 6
[22] = Batch 1, 25° C./relative humidity at 60%, sealed, Month 3
[23] = Batch 1, 25° C./relative humidity at 60%, sealed, Month 6
[24] = Batch 2, 25° C./relative humidity at 60%, sealed, Month 3
[25] = Batch 2, 25° C./relative humidity at 60%, sealed, Month 6

O=C1CCC(c2noc3ccc4[nH]ccc4c23)C(=O)N1 (stereo not drawn)
hygroscopicity classification ([1]; 25° C., 80% RH, DVS): no or almost no hygroscopicity | crystalline form after DVS test ([1]; after DVS): remained unchanged | stability in solvents (conclusion) [2]: good stability | Content ([3]; Day 0): 98.9% | Total impurities ([3]; Day 0): <0.05% | Content [3, 6]: 100.7% | Total impurities [3, 6]: <0.05% | Content [3, 7]: 100.2% | Total impurities [3, 7]: <0.05% | Content [3, 8]: 100.4% | Total impurities [3, 8]: <0.05% | Content [3, 9]: 99.9% | Total impurities [3, 9]: <0.05% | Content [3, 10]: 100.2% | Total impurities [3, 10]: <0.05% | Content [3, 11]: 100.2% | Total impurities [3, 11]: <0.05% | Content [3, 12]: 100.7% | Total impurities [3, 12]: <0.05% | Content [3, 13]: 100.0% | Total impurities [3, 13]: <0.05% | solid stability (conclusion) ([3]; at high temperature, at high humidity, and in intense light): good stability | Content [4, 14]: 100.1% | Total impurities [4, 14]: 0.05% | Content [4, 15]: 100.4% | Total impurities [4, 15]: <0.05% | Content [4, 16]: 100.4% | Total impurities [4, 16]: <0.05% | Content [4, 17]: 98.1% | Total impurities [4, 17]: <0.05% | Content ([4]; Batch 1, Day 0): 98.9% | Total impurities ([4]; Batch 1, Day 0): <0.05% | Content [4, 18]: 100.0% | Total impurities [4, 18]: 0.05% | Content [4, 19]: 100.2% | Total impurities [4, 19]: <0.05% | Content [4, 20]: 100.2% | Total impurities [4, 20]: <0.05% | Content [4, 21]: 99.2% | Total impurities [4, 21]: <0.05% | Appearance ([4]; Batch 2, Day 0): White powder | Content ([4]; Batch 2, Day 0): 100.2% | Total impurities ([4]; Batch 2, Day 0): <0.05% | solid stability (conclusion) ([4]; accelerated conditions at 40° C. with relative humidity at 75%): good stability | Content [5, 22]: 99.8% | Total impurities [5, 22]: <0.05% | Content [5, 23]: 99.2% | Total impurities [5, 23]: <0.05% | Content ([5]; Batch 1, Day 0): 98.9% | Total impurities ([5]; Batch 1, Day 0): <0.05% | Appearance [5, 24]: White powder | Content [5, 24]: 100.4% | Total impurities [5, 24]: <0.05% | Appearance [5, 25]: White powder | Content [5, 25]: 100.4% | Total impurities [5, 25]: <0.05% | Appearance ([5]; Batch 2, Day 0): White powder | Content ([5]; Batch 2, Day 0): 100.2% | Total impurities ([5]; Batch 2, Day 0): <0.05% | solid stability (conclusion) ([5]; long-term conditions at 25° C. with relative humidity at 60%): good stability
